Experimental findings from PubChem BioAssay (NCI) are described below.

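Each compound was tested at five concentrations against cells in 96-well plates for 48 hours. TGI is the concentration that stops growth completely.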

One assay deals with HCC-2998 colon. Description: growth of human tumour cells (NCI), 48 h.
The compound `CCc1nnc(CC)n1NCCCC(=O)O` came in with a TGI greater than 100 µM.
On the same count and under the same terms, next, `CCOC(=O)NC(C(F)(F)F)(C(F)(F)F)P(=O)(OC(C)C)OC(C)C`: greater than 100 µM; `C/C(=N\N)C(CN(C)C)C(c1ccccc1)c1c(O)c2ccccc2oc1=O` (stereo not given): greater than 100 µM.
`CSC1=N[C@H](c2ccccc2)CS1` yielded a TGI greater than 100 µM.
The same measure, in the same setting: next, `CN(C)c1ccc(-c2c(C#N)c(N)[nH]c(=S)c2C#N)cc1`: greater than 100 µM.

Another assay concerns HL-60(TB) leukemia. Nature of the assay: growth of human tumour cells (NCI), 48 h.
`CC(C)OP(=O)(OC(C)C)C(C(C)C)N(C)/C(N)=N\C1=NC(C(F)(F)F)(C(F)(F)F)N=C(C(C(F)(F)F)C(F)(F)F)O1` (stereo not given) returned a TGI of 4.16 µM.
Same read-out and setting: next, `O=c1c2cc(S(=O)(=O)Nc3ccccc3Cl)ccc2ncn1NS(=O)(=O)c1ccc(Br)cc1`: greater than 37.5 µM; `CC1=C(C(=O)Nc2cccc3c2C(=O)NC3=O)CC(C(=O)Nc2cccc3c2C(=O)NC3=O)=C(C)N1`: greater than 100 µM; `CC1C2CC(CC(=O)N2)C1(C)C` (stereo not given): greater than 100 µM.
For the compound `COc1cc(S(=O)(=O)Nc2ccc(-c3csc(N4C(=O)CSC4c4cccs4)n3)cc2)ccc1Cl` (stereo not given), the TGI was 41.5 µM.
Same read-out and setting: next, `NCCCCNCCCN1CC1`: 5.32 µM.
Same read-out and setting: next, `Cc1c2ccncc2cc2c1sc1ccncc12`: 6.79 µM; `CCOC(=O)c1nc2ccc(C(F)(F)F)cc2nc1NCc1ccc(Cl)c(Cl)c1`: greater than 100 µM.
Same read-out and setting: next, `NCCCNCCCNCCCN`: greater than 100 µM; `CCOC(=O)NC(C(F)(F)F)(C(F)(F)F)P(=O)(OC(C)C)OC(C)C`: greater than 100 µM.
`C/C(=N\N)C(CN(C)C)C(c1ccccc1)c1c(O)c2ccccc2oc1=O` (stereo not given) gave a TGI greater than 100 µM.
As to `CN(C)c1ccc(-c2c(C#N)c(N)[nH]c(=S)c2C#N)cc1`, the TGI was greater than 100 µM.

The next assay relates to HOP-92 NSCLC. Nature of the assay: growth of human tumour cells (NCI), 48 h.
`O=c1c2cc(S(=O)(=O)Nc3ccccc3Cl)ccc2ncn1NS(=O)(=O)c1ccc(Br)cc1` showed a TGI greater than 37.5 µM.
Consider `CC1=C(C(=O)Nc2cccc3c2C(=O)NC3=O)CC(C(=O)Nc2cccc3c2C(=O)NC3=O)=C(C)N1`, for which the TGI is greater than 100 µM.
As for `CC1C2CC(CC(=O)N2)C1(C)C` (stereo not given), the TGI is greater than 100 µM.
On the same count and under the same terms, next, `COc1cc(S(=O)(=O)Nc2ccc(-c3csc(N4C(=O)CSC4c4cccs4)n3)cc2)ccc1Cl` (stereo not given): greater than 100 µM; `C[C@H]1[C@H](C)N(Cc2ccccc2)P(=O)(C(O)/C=C/c2ccccc2)N1Cc1ccccc1` (stereo not given in full): 19.7 µM; `NCCCCNCCCN1CC1`: 7.47 µM.
The same measure, in the same setting: next, `Cc1c2ccncc2cc2c1sc1ccncc12`: 46.9 µM.
Take `CCOC(=O)c1nc2ccc(C(F)(F)F)cc2nc1NCc1ccc(Cl)c(Cl)c1`: the TGI stood at 40.4 µM.
The compound `CCc1nnc(CC)n1NCCCC(=O)O` yielded a TGI greater than 100 µM.
With `C/C(=N\N)C(CN(C)C)C(c1ccccc1)c1c(O)c2ccccc2oc1=O` (stereo not given), the TGI is greater than 100 µM.
As for `CN(C)c1ccc(-c2c(C#N)c(N)[nH]c(=S)c2C#N)cc1`, the TGI was greater than 100 µM.

A further assay has as its system IGROV1 ovarian. Nature of the assay: growth of human tumour cells (NCI), 48 h.
In the case of `CC(C)OP(=O)(OC(C)C)C(C(C)C)N(C)/C(N)=N\C1=NC(C(F)(F)F)(C(F)(F)F)N=C(C(C(F)(F)F)C(F)(F)F)O1` (stereo not given), the TGI stood at 5.77 µM.
In turn, `O=c1c2cc(S(=O)(=O)Nc3ccccc3Cl)ccc2ncn1NS(=O)(=O)c1ccc(Br)cc1` displayed a TGI greater than 37.5 µM.
For `CC1=C(C(=O)Nc2cccc3c2C(=O)NC3=O)CC(C(=O)Nc2cccc3c2C(=O)NC3=O)=C(C)N1`, the TGI is greater than 100 µM.
Same read-out and setting: next, `CC1C2CC(CC(=O)N2)C1(C)C` (stereo not given): greater than 100 µM; `COc1cc(S(=O)(=O)Nc2ccc(-c3csc(N4C(=O)CSC4c4cccs4)n3)cc2)ccc1Cl` (stereo not given): greater than 100 µM.
The same measure, in the same setting: next, `C[C@H]1[C@H](C)N(Cc2ccccc2)P(=O)(C(O)/C=C/c2ccccc2)N1Cc1ccccc1` (stereo not given in full): greater than 25 µM; `NCCCCNCCCN1CC1`: greater than 21.5 µM; `Cc1c2ccncc2cc2c1sc1ccncc12`: 39.3 µM.
`CCOC(=O)c1nc2ccc(C(F)(F)F)cc2nc1NCc1ccc(Cl)c(Cl)c1` yielded a TGI of 55.4 µM.
The same measure, in the same setting: next, `NCCCNCCCNCCCN`: greater than 100 µM; `Cn1nc(Cc2ccc(Cl)cc2)n(N)c1=O`: greater than 100 µM; `CCc1nnc(CC)n1NCCCC(=O)O`: greater than 100 µM.
Same read-out and setting: next, `CCOC(=O)NC(C(F)(F)F)(C(F)(F)F)P(=O)(OC(C)C)OC(C)C`: greater than 100 µM.
Same read-out and setting: next, `C/C(=N\N)C(CN(C)C)C(c1ccccc1)c1c(O)c2ccccc2oc1=O` (stereo not given): greater than 100 µM.
`CSC1=N[C@H](c2ccccc2)CS1` showed a TGI greater than 100 µM.
The same measure, in the same setting: next, `CN(C)c1ccc(-c2c(C#N)c(N)[nH]c(=S)c2C#N)cc1`: greater than 100 µM.

The subject of another assay is LOX IMVI melanoma. Nature of the assay: growth of human tumour cells (NCI), 48 h.
Compound `CC(C)OP(=O)(OC(C)C)C(C(C)C)N(C)/C(N)=N\C1=NC(C(F)(F)F)(C(F)(F)F)N=C(C(C(F)(F)F)C(F)(F)F)O1` (stereo not given) returned a TGI of 3.77 µM.
Compound `O=c1c2cc(S(=O)(=O)Nc3ccccc3Cl)ccc2ncn1NS(=O)(=O)c1ccc(Br)cc1` returned a TGI greater than 37.5 µM.
On the same count and under the same terms, next, `CC1=C(C(=O)Nc2cccc3c2C(=O)NC3=O)CC(C(=O)Nc2cccc3c2C(=O)NC3=O)=C(C)N1`: greater than 100 µM; `COc1cc(S(=O)(=O)Nc2ccc(-c3csc(N4C(=O)CSC4c4cccs4)n3)cc2)ccc1Cl` (stereo not given): 36.6 µM.
Still for that read-out and setting: next, `C[C@H]1[C@H](C)N(Cc2ccccc2)P(=O)(C(O)/C=C/c2ccccc2)N1Cc1ccccc1` (stereo not given in full): 14.5 µM; `NCCCCNCCCN1CC1`: 3.46 µM.
As for `Cc1c2ccncc2cc2c1sc1ccncc12`, the TGI amounted to 25.6 µM.
The compound `CCOC(=O)c1nc2ccc(C(F)(F)F)cc2nc1NCc1ccc(Cl)c(Cl)c1` yielded a TGI greater than 100 µM.
For `NCCCNCCCNCCCN`, the TGI was greater than 100 µM.
Same read-out and setting: next, `CCc1nnc(CC)n1NCCCC(=O)O`: greater than 100 µM.
Still for that read-out and setting: next, `CCOC(=O)NC(C(F)(F)F)(C(F)(F)F)P(=O)(OC(C)C)OC(C)C`: greater than 100 µM; `C/C(=N\N)C(CN(C)C)C(c1ccccc1)c1c(O)c2ccccc2oc1=O` (stereo not given): greater than 100 µM.
Same read-out and setting: next, `CN(C)c1ccc(-c2c(C#N)c(N)[nH]c(=S)c2C#N)cc1`: greater than 100 µM.

The subject of the next assay is MALME-3M melanoma. Description: growth of human tumour cells (NCI), 48 h.
As to `CC(C)OP(=O)(OC(C)C)C(C(C)C)N(C)/C(N)=N\C1=NC(C(F)(F)F)(C(F)(F)F)N=C(C(C(F)(F)F)C(F)(F)F)O1` (stereo not given), the TGI stood at 22.7 µM.
`O=c1c2cc(S(=O)(=O)Nc3ccccc3Cl)ccc2ncn1NS(=O)(=O)c1ccc(Br)cc1` registered a TGI greater than 37.5 µM.
Compound `CC1=C(C(=O)Nc2cccc3c2C(=O)NC3=O)CC(C(=O)Nc2cccc3c2C(=O)NC3=O)=C(C)N1` displayed a TGI greater than 100 µM.
For `CC1C2CC(CC(=O)N2)C1(C)C` (stereo not given), the TGI was greater than 100 µM.
The same measure, in the same setting: next, `COc1cc(S(=O)(=O)Nc2ccc(-c3csc(N4C(=O)CSC4c4cccs4)n3)cc2)ccc1Cl` (stereo not given): 70.6 µM.
The same measure, in the same setting: next, `C[C@H]1[C@H](C)N(Cc2ccccc2)P(=O)(C(O)/C=C/c2ccccc2)N1Cc1ccccc1` (stereo not given in full): 13.4 µM; `NCCCCNCCCN1CC1`: greater than 91.9 µM.
Still for that read-out and setting: next, `Cc1c2ccncc2cc2c1sc1ccncc12`: 15 µM.
`CCOC(=O)c1nc2ccc(C(F)(F)F)cc2nc1NCc1ccc(Cl)c(Cl)c1` gave a TGI of 99.1 µM.
The same measure, in the same setting: next, `NCCCNCCCNCCCN`: greater than 100 µM; `Cn1nc(Cc2ccc(Cl)cc2)n(N)c1=O`: greater than 100 µM; `CCOC(=O)NC(C(F)(F)F)(C(F)(F)F)P(=O)(OC(C)C)OC(C)C`: greater than 100 µM.
Turning to `C/C(=N\N)C(CN(C)C)C(c1ccccc1)c1c(O)c2ccccc2oc1=O` (stereo not given), the TGI is greater than 100 µM.
